# From patent publication US5977133A, “Pyridone antibiotic with improved safety profile” (priority 1998, dated 1999)
# Structures can show the parent of a compound that is named as a salt.
# Assays:
# S. aureus (CiproS) = experiment: In vitro MIC, agar dilution; format: cell-based; conditions: Staphylococcus aureus
# S. aureus (CiproR) = experiment: In vitro MIC, agar dilution; format: cell-based; conditions: Staphylococcus aureus
# S. pneumoniae (PenS) = experiment: In vitro MIC, agar dilution; format: cell-based; conditions: Streptococcus pneumoniae
# S. pneumoniae (PenR) = experiment: In vitro MIC, agar dilution; format: cell-based; conditions: Streptococcus pneumoniae
# E. faecium (CiproS) = experiment: In vitro MIC, agar dilution; format: cell-based; conditions: Enterococcus faecium
# E. faecium (CiproR) = experiment: In vitro MIC, agar dilution; format: cell-based; conditions: Enterococcus faecium, read-out: MIC Range
# E. faecalis (VanS) = experiment: In vitro MIC, agar dilution; format: cell-based; conditions: Enterococcus faecalis
# Enterococcus spp. (VanR) = experiment: In vitro MIC, agar dilution; format: cell-based
# E. coli = experiment: In vitro MIC, agar dilution; format: cell-based; conditions: Escherichia coli, 25 isolates
# Method: Each plate was inoculated with 1:100 (or 1:10 for slow-growing strains, primarily Micrococcus and Streptococcus) dilutions of up to 32 different microorganisms, using a Steers replicator block calibrated to deliver approximately 10^4 colony forming units (CFU's). The inoculated plates were incubated at from about 35° C. to about 37 ° C. for approximately 20-24 hours. In addition, a control plate using BHI agar containing no test compound was prepared and incubated at the beginning and at the end of each test. The quinolone antibacterial ciprofloxacin was used as a control ("Cntl").
# The numbers below the microorganism species indicate the nunbers of isolates tested. […] The MIC is defined as the lowest concentration of test compound yielding no growth (a slight haze or sparsely isolated colonies at the inoculum spot) as compared to the growth control containing no test compound.
# P. aeruginosa (CiproS) = experiment: In vitro MIC, agar dilution; format: cell-based; conditions: Pseudomonas aeruginosa
# P. aeruginosa (CiproR) = experiment: In vitro MIC, agar dilution; format: cell-based; conditions: Pseudomonas aeruginosa, P. aeruginosa (CiproR), 20 isolates
# B. fragilis = experiment: In vitro MIC, agar dilution; format: cell-based; conditions: Bacteroides fragilis
# [1] = mouse, in vivo, ip, 100 mg/kg
# in vivo = conditions: mouse, ip
# [2] = test system: staphylococcus aureus NTCC 10649; experiment: In vivo efficacy, mouse infection (ED50); conditions: Staphylococcus aureus, NTCC10649, in Mus musculus, 168 h
# [3] = test system: Streptococcus pneumoniae 6303; experiment: In vivo efficacy, mouse infection (ED50); conditions: Streptococcus pneumoniae, 6303, in Mus musculus, 168 h
# Escherichia coli JUHL = experiment: In vivo efficacy, mouse infection (ED50); conditions: Escherichia coli, in Mus musculus, 168 h
smiles,measurement,setting,value
"Cc1c(N2CC[C@H](N)C2)c(F)cn2c(=O)c(C(=O)O)cc(C3CC3)c12 [Example 2, 1-cyclopropyl-8-(3(S)-3-amino-1-pyrrolidinyl)-7-fluoro-9-methvl-4-oxo-4H-quinolizine-3-carboxylic acid hydrochloride]",MIC90,S. aureus (CiproS),0.015 µg/mL
same,MIC50,"S. aureus (CiproS); S. aureus (CiproS), 21 isolates, read-out: MIC50",0.008 µg/mL
same,MIC,"S. aureus (CiproS); S. aureus (CiproS), 21 isolates, read-out: MIC Range",0.008 to 0.015 µg/mL
same,MIC90,S. aureus (CiproR),0.25 µg/mL
same,MIC50,"S. aureus (CiproR); S. aureus (CiproR), 25 isolates, read-out: MIC50",0.25 µg/mL
same,MIC,"S. aureus (CiproR); S. aureus (CiproR), 25 isolates, read-out: MIC Range",0.03 to 1 µg/mL
same,MIC50,S. pneumoniae (PenS),0.03 µg/mL
same,MIC90,S. pneumoniae (PenS),0.03 µg/mL
same,MIC,"S. pneumoniae (PenS); S. pneumoniae (PenS), 20 isolates, read-out: MIC Range",0.015 to 0.03 µg/mL
same,MIC50,S. pneumoniae (PenR),0.03 µg/mL
same,MIC90,S. pneumoniae (PenR),0.03 µg/mL
same,MIC,"S. pneumoniae (PenR); S. pneumoniae (PenR), 25 isolates, read-out: MIC Range",0.03 µg/mL
same,MIC90,E. faecium (CiproS),0.25 µg/mL
same,MIC,E. faecium (CiproS); read-out: MIC Range,0.25 to 0.5 µg/mL
same,MIC50,"E. faecium (CiproS); E. faecium (CiproS), 16 isolates, read-out: MIC50",0.25 µg/mL
same,MIC,E. faecium (CiproR),0.5 to 2 µg/mL
same,MIC90,E. faecalis (VanS),0.12 µg/mL
same,MIC50,"E. faecalis (VanS); E. faecalis (VanS), 17 isolates, read-out: MIC50",0.06 µg/mL
same,MIC,"E. faecalis (VanS); E. faecalis (VanS), 17 isolates, read-out: MIC Range",0.03 to 0.12 µg/mL
same,MIC90,Enterococcus spp. (VanR); Enterococcus,0.25 µg/mL
same,MIC50,"Enterococcus spp. (VanR); Enterococcus spp. (VanR), 21 isolates, read-out: MIC50",0.25 µg/mL
same,MIC,"Enterococcus spp. (VanR); Enterococcus spp. (VanR), 21 isolates, read-out: MIC Range",0.12 to 2 µg/mL
same,MIC,E. coli,0.004 to 0.015 µg/mL
same,MIC50,E. coli; read-out: MIC50,0.004 µg/mL
same,MIC90,E. coli; read-out: MIC90,0.008 µg/mL
same,MIC90,P. aeruginosa (CiproS),0.25 µg/mL
same,MIC50,"P. aeruginosa (CiproS); P. aeruginosa (CiproS), 24 isolates, read-out: MIC50",0.06 µg/mL
same,MIC,"P. aeruginosa (CiproS); P. aeruginosa (CiproS), 24 isolates, read-out: MIC Range",0.015 to 0.5 µg/mL
same,MIC50,P. aeruginosa (CiproR); read-out: MIC50,2 µg/mL
same,MIC90,P. aeruginosa (CiproR); read-out: MIC90,2 µg/mL
same,MIC,P. aeruginosa (CiproR); read-out: MIC Range,1 to 4 µg/mL
same,MIC90,B. fragilis,0.5 µg/mL
same,MIC,B. fragilis; read-out: MIC Range,0.06 to 0.5 µg/mL
same,MIC50,"B. fragilis; B. fragilis, 18 isolates, read-out: MIC50",0.12 µg/mL
same,body weight loss,[1],38%
same,LD50 at 504 h,in vivo,38.8 mg/kg
same,ED50,[2]; po,3.4 mg/kg
same,ED50,[2]; sc,0.6 mg/kg
same,ED50,[3]; po,5.3 mg/kg
same,ED50,[3]; sc,1.6 mg/kg
same,ED50,Escherichia coli JUHL; po,0.6 mg/kg
same,ED50,Escherichia coli JUHL; sc,0.1 mg/kg
